Measured values reported in PubChem BioAssay AID328 (DTP/NCI, 2004).
Values joined by “and” are separate entries in the source; they are usually repeats but may differ in a detail not shown here. Equal values may be shown once. Inconclusive results and toxic doses are left out. The calls were made as follows: active = survival T/C of 150% or more; inactive = T/C below 125% in these data.

System: BDF1 mice, P388 leukemia ip, median survival T/C
Test: NCI In Vivo Anticancer Drug Screen. Data for tumor model P388 Leukemia (intraperitoneal) in B6D2F1 (BDF1) mice
Settings: endpoint: median survival time, higher = longer survival
Summary of the method: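 Survival ratio, drug arm over vehicle arm, in mice with a transplanted tumour.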

[1] = dose: 200.0 mg/kg/injection, schedule: Q04DX003 (ip), vehicle: saline with Tween-80
[2] = dose: 400.0 mg/kg/injection, schedule: Q04DX003 (ip), vehicle: saline with Tween-80
[3] = dose: 50.0 mg/kg/injection, schedule: Q04DX003 (ip), vehicle: saline with Tween-80

Measured: T/C

O=NN(CCCl)C(=O)N[C@H]1CCCC[C@H]1Cl
active: dose: 5.5 mg/kg/injection, schedule: Q01DX009 (ip), vehicle: Klucel (hydroxypropylcellulose) (HPC) 153 % of control and 194 % of control | dose: 8.5 mg/kg/injection, schedule: Q01DX009 (ip), vehicle: Klucel (hydroxypropylcellulose) (HPC) 159 % of control and 169 % of control and 216 % of control | dose: 8.5 mg/kg/injection, schedule: Q04DX003 (ip), vehicle: Klucel (hydroxypropylcellulose) (HPC) 165 % of control | dose: 13.0 mg/kg/injection, schedule: Q01DX009 (ip), vehicle: Klucel (hydroxypropylcellulose) (HPC) 305 % of control and 192 % of control | dose: 13.0 mg/kg/injection, schedule: Q04DX003 (ip), vehicle: Klucel (hydroxypropylcellulose) (HPC) 235 % of control | dose: 20.0 mg/kg/injection, schedule: Q01DX009 (ip), vehicle: Klucel (hydroxypropylcellulose) (HPC) 250 % of control and 333 % of control and 200 % of control | dose: 20.0 mg/kg/injection, schedule: Q04DX003 (ip), vehicle: Klucel (hydroxypropylcellulose) (HPC) 270 % of control and 300 % of control | dose: 30.0 mg/kg/injection, schedule: Q04DX003 (ip), vehicle: Klucel (hydroxypropylcellulose) (HPC) 300 % of control | dose: 44.0 mg/kg/injection, schedule: Q04DX003 (ip), vehicle: Klucel (hydroxypropylcellulose) (HPC) 300 % of control | dose: 67.0 mg/kg/injection, schedule: Q04DX003 (ip), vehicle: Klucel (hydroxypropylcellulose) (HPC) 300 % of control
inactive: dose: 1.0 mg/kg/injection, schedule: Q01DX009 (ip), vehicle: Klucel (hydroxypropylcellulose) (HPC) 104 % of control | dose: 1.0 mg/kg/injection, schedule: Q04DX003 (ip), vehicle: Klucel (hydroxypropylcellulose) (HPC) 104 % of control | dose: 1.5 mg/kg/injection, schedule: Q01DX009 (ip), vehicle: Klucel (hydroxypropylcellulose) (HPC) 116 % of control | dose: 2.0 mg/kg/injection, schedule: Q04DX003 (ip), vehicle: Klucel (hydroxypropylcellulose) (HPC) 104 % of control | dose: 2.3 mg/kg/injection, schedule: Q01DX009 (ip), vehicle: Klucel (hydroxypropylcellulose) (HPC) 104 % of control | dose: 4.0 mg/kg/injection, schedule: Q04DX003 (ip), vehicle: Klucel (hydroxypropylcellulose) (HPC) 100 % of control | dose: 30.0 mg/kg/injection, schedule: Q01DX009 (ip), vehicle: Klucel (hydroxypropylcellulose) (HPC) 120 % of control | dose: 44.0 mg/kg/injection, schedule: Q01DX009 (ip), vehicle: Klucel (hydroxypropylcellulose) (HPC) 104 % of control

CC(=O)OCC(C)OC(C)=O (stereo unspecified)
inactive: dose: 100.0 mg/kg/injection, schedule: Q01DX009 (ip), vehicle: saline 91 % of control | dose: 100.0 mg/kg/injection, schedule: Q04DX003 (ip), vehicle: saline 100 % of control | dose: 200.0 mg/kg/injection, schedule: Q01DX009 (ip), vehicle: saline 112 % of control | dose: 200.0 mg/kg/injection, schedule: Q04DX003 (ip), vehicle: saline 100 % of control | dose: 400.0 mg/kg/injection, schedule: Q04DX003 (ip), vehicle: saline 96 % of control

CC(=N\O)/C(=N\O)C(=O)c1ccccc1
inactive: dose: 100.0 mg/kg/injection, schedule: Q01DX009 (ip), vehicle: other 91 % of control | dose: 100.0 mg/kg/injection, schedule: Q04DX003 (ip), vehicle: saline with Tween-80 95 % of control | [1] 95 % of control | [2] 90 % of control

CCC[CH2][Sn]([I])([CH2]I)[CH2]CCC
inactive: dose: 1.56 mg/kg/injection, schedule: Q01DX009 (ip), vehicle: saline with Tween-80 102 % of control | dose: 3.12 mg/kg/injection, schedule: Q01DX009 (ip), vehicle: saline with Tween-80 106 % of control | dose: 6.25 mg/kg/injection, schedule: Q01DX009 (ip), vehicle: saline with Tween-80 123 % of control

Cc1cc(-c2ccccc2)[s+]s1
inactive: dose: 25.0 mg/kg/injection, schedule: Q01DX009 (ip), vehicle: saline with Tween-80 122 % of control | dose: 50.0 mg/kg/injection, schedule: Q01DX009 (ip), vehicle: saline with Tween-80 113 % of control | [3] 109 % of control | dose: 100.0 mg/kg/injection, schedule: Q01DX009 (ip), vehicle: saline with Tween-80 117 % of control | [1] 117 % of control | [2] 118 % of control

CC(C)c1cccc(OS(=O)(=O)c2ccccc2[N+](=O)[O-])c1
inactive: dose: 100.0 mg/kg/injection, schedule: Q04DX003 (ip), vehicle: saline sonified 100 % of control | dose: 200.0 mg/kg/injection, schedule: Q04DX003 (ip), vehicle: saline sonified 100 % of control | dose: 400.0 mg/kg/injection, schedule: Q04DX003 (ip), vehicle: saline sonified 100 % of control

C=C(C)C(=O)O[C@H]1C[C@@]23O[C@@H]2CCC(=C[C@H]2OC(=O)C(=C)[C@H]12)COC3O (stereo partly specified)
inactive: dose: 9.37 mg/kg/injection, schedule: Q01DX009 (ip), vehicle: saline 108 % of control | dose: 18.75 mg/kg/injection, schedule: Q01DX009 (ip), vehicle: saline 104 % of control | dose: 18.75 mg/kg/injection, schedule: Q04DX003 (ip), vehicle: saline 113 % of control | dose: 37.5 mg/kg/injection, schedule: Q04DX003 (ip), vehicle: saline 95 % of control

CC1CCCC(CN=Cc2cc([N+](=O)[O-])ccc2O)[N-]1.CC1CCCC(CN=Cc2cc([N+](=O)[O-])ccc2O)[N-]1.[Ni+2] (stereo unspecified)
inactive: dose: 12.5 mg/kg/injection, schedule: Q04DX003 (ip), vehicle: saline with Tween-80 100 % of control | dose: 25.0 mg/kg/injection, schedule: Q04DX003 (ip), vehicle: saline with Tween-80 100 % of control | [3] 100 % of control
